Assay results reported in US20230000842A1, “METHODS OF TREATING CARTILAGE DISORDERS THROUGH INHIBITION OF CLK AND DYRK” (SAMUMED, LLC, priority 2019, published 2023).

Columns and labels:
CLK2 kinase = CLK2 kinase (Homo sapiens, UniProt P49760); experiment: CLK2 kinase activity assay (Z-lyte FRET); format: biochemical; conditions: Z-lyte Ser/Thr 6 peptide, 60 μM ATP, 1 h at room temperature;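 further: FRET read-out as coumarin to fluorescein emission ratio, unphosphorylated peptide as 0% and phosphorylated peptide as 100% controls, duplicate reactions, non-linear regression fit of dose-response curves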
Chain of CLK2 kinase (P49760 whole entry): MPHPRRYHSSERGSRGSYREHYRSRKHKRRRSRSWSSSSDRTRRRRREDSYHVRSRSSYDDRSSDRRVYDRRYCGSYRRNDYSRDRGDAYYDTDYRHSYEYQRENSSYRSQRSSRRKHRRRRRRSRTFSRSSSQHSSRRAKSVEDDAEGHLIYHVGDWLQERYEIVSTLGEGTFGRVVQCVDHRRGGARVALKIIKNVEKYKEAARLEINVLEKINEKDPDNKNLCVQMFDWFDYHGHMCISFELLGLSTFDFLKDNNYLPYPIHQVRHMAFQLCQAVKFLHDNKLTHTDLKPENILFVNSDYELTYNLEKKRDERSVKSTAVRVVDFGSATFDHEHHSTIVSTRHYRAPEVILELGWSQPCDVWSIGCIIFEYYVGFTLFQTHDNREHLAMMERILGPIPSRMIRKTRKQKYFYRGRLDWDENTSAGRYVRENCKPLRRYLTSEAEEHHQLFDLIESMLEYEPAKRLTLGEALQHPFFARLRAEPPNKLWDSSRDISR

CLK3 kinase = CLK3 kinase (Homo sapiens, UniProt P49761); experiment: CLK3 kinase activity assay (Z-lyte FRET); format: biochemical; conditions: Z-lyte Ser/Thr 18 peptide, 156 μM ATP, 1 h at room temperature;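 further: kinase activity read as coumarin/fluorescein emission ratio by FRET, unphosphorylated peptide as 0% and phosphorylated peptide as 100% control, values from non-linear regression of dose-response curves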
Chain of CLK3 kinase (P49761 whole entry): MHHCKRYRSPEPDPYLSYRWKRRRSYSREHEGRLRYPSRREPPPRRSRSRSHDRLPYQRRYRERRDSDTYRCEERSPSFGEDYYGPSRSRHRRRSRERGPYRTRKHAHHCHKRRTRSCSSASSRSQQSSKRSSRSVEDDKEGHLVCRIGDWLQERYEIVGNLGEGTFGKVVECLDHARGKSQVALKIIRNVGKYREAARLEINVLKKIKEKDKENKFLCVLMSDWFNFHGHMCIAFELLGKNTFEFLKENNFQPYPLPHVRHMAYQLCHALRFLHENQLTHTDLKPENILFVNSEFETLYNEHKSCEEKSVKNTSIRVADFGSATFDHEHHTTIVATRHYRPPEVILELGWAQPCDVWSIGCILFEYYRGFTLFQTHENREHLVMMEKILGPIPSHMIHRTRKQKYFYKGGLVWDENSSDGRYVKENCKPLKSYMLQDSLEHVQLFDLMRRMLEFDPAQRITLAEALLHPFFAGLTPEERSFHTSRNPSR

[1] = tested on: primary human mesenchymal stem cells (hMSCs); experiment: Chondrogenesis screening using primary human mesenchymal stem cells; format: cell-based; conditions: Homo sapiens, Mesenchymal stem cells, hMSC chondrogenesis; for EC50: concentration required to induce 50% levels of chondrogenesis with TGF-β3 as positive control, read-out: Conc (nM) of 50% TGF-β3 activity; for Emax: maximum activity relative to TGF-β3 (10 ng/mL) positive control, read-out: Max. Activity as % TGF-β3 activity
Method in brief: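 Primary hMSCs at passage 3–6 were treated across compound concentrations, with TGF-β3 as positive control. Chondrogenic nodule area per well was normalized to 3 DMSO wells on the same plate (fold over DMSO, 2–3 replicates). EC50, maximum activity and the dose reaching it were derived.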

[2] = tested on: Wnt pathway activity (SW480 colon carcinoma cells stably expressing the Sp5-Luc reporter); experiment: Wnt pathway activity screening assay (Sp5-Luc reporter gene assay); conditions: Homo sapiens, SW480, Table 4; SW480 cells stably expressing Sp5-Luc reporter, 10-point dose-response from 10 μM, 36 to 48 hours
Protocol: The screening assay for Wnt pathway activity is described as follows.
SW480 colon carcinoma cells were transduced with a lentiviral vector expressing luciferase with a human Sp5 promoter consisting of a sequence of eight TCF/LEF binding sites. […] These stably transduced SW480 cells were expanded in cell culture and used for all further screening activities. Each compound was dissolved in DMSO as a 10 mM stock and used to prepare compound source plates. Serial dilution (1:3, 10-point dose-response curves starting from 10 μM) and compound transfer was performed using the ECHO 550 (Labcyte, Sunnyvale, Calif.) into 384-well white solid bottom assay plates (Greiner Bio-One) with appropriate DMSO backfill for a final DMSO concentration of 0.1%. […] Following incubation, 15 μl of BriteLite Plus luminescence reagent (Perkin Elmer) was added to each well of the 384-well assay plates. The plates were placed on an orbital shaker for 2 min and then luminescence was quantified using the Envision (Perkin Elmer) plate reader.

Row | SMILES | EC50 (CLK2 kinase) [nM] | EC50 (CLK3 kinase) [nM] | EC50 [1] [nM] | Emax [1] [%] | EC50 [2] [µM]
1 | CC(C)Nc1cncc(-c2cc3c(-c4cc5c(-c6cccnc6)ccnc5[nH]4)n[nH]c3cn2)c1 [compound 363] | 8 | 9840 | 10 | 77 | > 10
2 | CC(C)Nc1cncc(-c2ccc3[nH]nc(-c4cc5c(-c6cccnc6)ccnc5[nH]4)c3n2)c1 [compound 364] | 10 | 139 | – | 47.2 | 0.255
3 | CCNCc1cncc(-c2ccc3[nH]nc(-c4cc5c(-c6cccnc6)ccnc5[nH]4)c3c2)c1 [compound 365] | 13 | 443 | – | 28.7 | > 10
4 | CCNCc1cncc(-c2cnc3[nH]nc(-c4cc5c(-c6cccnc6)ccnc5[nH]4)c3c2)c1 [compound 366] | 4 | 74 | 10 | 91.8 | > 10
5 | CN(C)Cc1cncc(-c2ccc3[nH]nc(-c4cc5c(-c6cccnc6)cccc5[nH]4)c3n2)c1 [compound 368] | 4 | 102 | – | 35.9 | 0.415
6 | c1cncc(-c2ccnc3[nH]c(-c4n[nH]c5cnc(-c6cncc(CN7CCCC7)c6)cc45)cc23)c1 [compound 369] | 9 | 102 | – | 16.7 | > 10
7 | FC1(F)CCN(Cc2cncc(-c3ccc4[nH]nc(-c5cc6c(-c7cccnc7)ccnc6[nH]5)c4c3)c2)C1 [compound 370] | 6 | 101 | – | 20.3 | 0.523
8 | FC1(F)CCN(Cc2cncc(-c3ccc4[nH]nc(-c5cc6c(-c7cccnc7)cncc6[nH]5)c4n3)c2)C1 [compound 371] | 11 | 408 | – | 23.3 | 3.85
9 | c1cncc(-c2ccnc3[nH]c(-c4n[nH]c5ncc(-c6cncc(CN7CCCCC7)c6)cc45)cc23)c1 [compound 372] | 2 | 69 | – | 43.9 | > 10
10 | c1cncc(-c2cncc3[nH]c(-c4n[nH]c5ncc(-c6cncnc6)cc45)cc23)c1 [compound 373] | 4 | 156 | – | 24.1 | > 10
11 | c1cncc(-c2ccnc3[nH]c(-c4n[nH]c5cnc(-c6cncnc6)cc45)cc23)c1 [compound 374] | 19 | 9840 | – | 49.6 | > 10
12 | Cn1cc(-c2ccc3[nH]nc(-c4cc5c(-c6cccnc6)cncc5[nH]4)c3c2)cn1 [compound 375] | 6 | 100 | – | 65.2 | 0.25
13 | Nc1cncc(-c2ccc3[nH]nc(-c4cc5c(-c6ccncc6)nccc5[nH]4)c3c2)c1 [compound 377] | 7 | 113 | – | 76.8 | 0.658
14 | Nc1cncc(-c2cnc3[nH]nc(-c4cc5c(-c6ccncc6)nccc5[nH]4)c3c2)c1 [compound 378] | 2 | 50 | 30 | 53.5 | > 10
15 | Nc1cncc(-c2cnc3[nH]nc(-c4cc5c(-c6ccncc6)cncc5[nH]4)c3c2)c1 [compound 379] | 4 | 69 | – | 31.5 | > 10
16 | Nc1cncc(-c2ccc3[nH]nc(-c4cc5c(-c6ccncc6)ccnc5[nH]4)c3n2)c1 [compound 382] | 4 | 63 | – | 26.9 | > 10
17 | CCCC(=O)Nc1cncc(-c2ccc3[nH]nc(-c4cc5c(-c6ccncc6)cncc5[nH]4)c3c2)c1 [compound 383] | 3 | 46 | – | 124 | > 10

Row | SMILES | EC50 (CLK2 kinase) [nM] | EC50 (CLK3 kinase) [nM] | EC50 [1] [nM] | Emax [1] [%] | EC50 [2] [µM]
18 | CC(C)C(=O)Nc1cncc(-c2cc3c(-c4cc5c(-c6ccncc6)nccc5[nH]4)n[nH]c3cn2)c1 [compound 385] | 12 | 389 | – | 32.1 | > 10
19 | CCCCC(=O)Nc1cncc(-c2cnc3[nH]nc(-c4cc5c(-c6ccncc6)cncc5[nH]4)c3c2)c1 [compound 386] | 8 | 201 | – | 70.4 | > 10
20 | CC(C)CC(=O)Nc1cncc(-c2ccc3[nH]nc(-c4cc5c(-c6ccncc6)nccc5[nH]4)c3c2)c1 [compound 387] | 5 | 132 | – | 95.5 | > 10
21 | CC(C)CC(=O)Nc1cncc(-c2ccc3[nH]nc(-c4cc5c(-c6ccncc6)cncc5[nH]4)c3c2)c1 [compound 388] | 4 | 29 | – | 70.2 | 0.875
22 | CC(C)CC(=O)Nc1cncc(-c2cnc3[nH]nc(-c4cc5c(-c6ccncc6)cccc5[nH]4)c3c2)c1 [compound 389] | 9 | 9910 | 30 | 71.4 | 0.711
23 | CC(C)(C)C(=O)Nc1cncc(-c2ccc3[nH]nc(-c4cc5c(-c6ccncc6)ccnc5[nH]4)c3c2)c1 [compound 390] | 11 | 137 | – | 44.4 | > 10
24 | CC(C)(C)C(=O)Nc1cncc(-c2cnc3[nH]nc(-c4cc5c(-c6ccncc6)cncc5[nH]4)c3c2)c1 [compound 391] | 4 | 62 | – | 33.6 | > 10
25 | CC(C)(C)C(=O)Nc1cncc(-c2cc3c(-c4cc5c(-c6ccncc6)cncc5[nH]4)n[nH]c3cn2)c1 [compound 392] | 9 | 92 | – | 30.4 | > 10
26 | O=C(Nc1cncc(-c2ccc3[nH]nc(-c4cc5c(-c6ccncc6)nccc5[nH]4)c3c2)c1)C1CCCC1 [compound 395] | 5 | 30 | – | 114 | > 10
27 | CN(C)Cc1cncc(-c2ccc3[nH]nc(-c4cc5c(-c6ccncc6)cncc5[nH]4)c3c2)c1 [compound 398] | 3 | 56 | – | 17.8 | 1.05
28 | CN(C)Cc1cncc(-c2cc3c(-c4cc5c(-c6ccncc6)cncc5[nH]4)n[nH]c3cn2)c1 [compound 399] | 4 | 188 | 30 | 51.7 | > 10
29 | CN(C)Cc1cncc(-c2cc3c(-c4cc5c(-c6ccncc6)ccnc5[nH]4)n[nH]c3cn2)c1 [compound 400] | 12 | 180 | – | 33.4 | > 10
30 | FC1(F)CCN(Cc2cncc(-c3cnc4[nH]nc(-c5cc6c(-c7ccncc7)cccc6[nH]5)c4c3)c2)C1 [compound 401] | 15 | 895 | – | 29.2 | 0.708
31 | FC1(F)CCN(Cc2cncc(-c3cnc4[nH]nc(-c5cc6c(-c7ccncc7)cncc6[nH]5)c4c3)c2)C1 [compound 402] | 5 | 110 | – | 36.5 | 1.51
32 | c1cc(-c2cncc3[nH]c(-c4n[nH]c5ccc(-c6cncc(CN7CCCCC7)c6)nc45)cc23)ccn1 [compound 403] | 6 | 306 | 10 | 97.1 | > 10
33 | Cc1ncc(-c2cnc3[nH]nc(-c4cc5c(-c6ccncc6)cncc5[nH]4)c3c2)n1C [compound 406] | 3 | 227 | – | 194 | > 10
